Reference: US9273095B2, “Antibiotic peptide and preparation method therefor and application therefor” (priority 2011, dated 2016)
Values after ≈ are worked out from the molar mass of the structure shown. Where two headings read alike, the source gives them in different places.

How the values were obtained:
Assay in all cases: microbe, parasite or virus in culture
Format in all cases: cell-based
candida krusei = conditions: Pichia kudriavzevii, read-out: Minimal inhibitory concentration
Excerpt: • (1) Test strains: monilia albicans (candida albicans), candida glabrata, candida krusei, candida tropicalis, aspergillus fumigatus and flavous. (2) Quality control strains: candida krusei JLC30366 (ATCC6258). Antimicrobial peptides PL-13 (SEQ ID NO: 1) under test are supplied by Jiangsu ProteLight Pharmaceutical & Biotechnology Co., LTD. […] (1) The bacterial strains which preserved on PDA slant are respectively inoculated onto PDA plate and slant medium. Activation of bacterial strains is conducted at a humidity level of 60% and 25° C. (for aspergillus) or 37° C. (for candida). (2) 0.9% stroke-physiological saline solution comprising 0.5% Tween-80 is used to prepare bacterial suspension for experiment. Hemocytometer is utilized to adjust concentration of the bacterial suspension to 1-3×10^6 CFU/ml (0.5 McFarland units) to make stock solution in reserve at -20° C. During the sensitivity test, the RPMI-1640 liquid medium is diluted 1000 times to 1-3×10^3 CFU/ml. (3) The RPMI-1640 liquid is utilized as diluent to 10-fold dilute stock solution of peptides. […] The eleventh orifice is used as living control orifice, while the twelfth one as blank control. (4) The RPMI-1640 liquid is utilized as diluent to 10-fold dilute stock solution of FCZ and ICZ. […] Ditto for other operations.

aspergillus flavous = conditions: for MIC: JLC 30784 aspergillus flavous, read-out: Minimal inhibitory concentration; for Minimal inhibitory concentration: JLC 40437 aspergillus flavous
Method: (§1) • (1) Test strains: monilia albicans (candida albicans), candida glabrata, candida krusei, candida tropicalis, aspergillus fumigatus and flavous. Antimicrobial peptides PL-13 (SEQ ID NO: 1) under test are supplied by Jiangsu ProteLight Pharmaceutical & Biotechnology Co., LTD. […] Activation of bacterial strains is conducted at a humidity level of 60% and 25° C. (for aspergillus) or 37° C. (for candida). (2) 0.9% stroke-physiological saline solution comprising 0.5% Tween-80 is used to prepare bacterial suspension for experiment. Hemocytometer is utilized to adjust concentration of the bacterial suspension to 1-3×10^6 CFU/ml (0.5 McFarland units) to make stock solution in reserve at -20° C. During the sensitivity test, the RPMI-1640 liquid medium is diluted 1000 times to 1-3×10^3 CFU/ml. (3) The RPMI-1640 liquid is utilized as diluent to 10-fold dilute stock solution of peptides. […] The eleventh orifice is used as living control orifice, while the twelfth one as blank control. (4) The RPMI-1640 liquid is utilized as diluent to 10-fold dilute stock solution of FCZ and ICZ. […] Ditto for other operations.

aspergillus fumigatus = conditions: for MIC: JLC 30506 aspergillus fumigatus, read-out: Minimal inhibitory concentration; for Minimal inhibitory concentration: JLC 30883 aspergillus fumigatus
Method: as §1

candida albicans = conditions: Candida albicans, read-out: Minimal inhibitory concentration
Method: as §1

candida glabrata = conditions: Nakaseomyces glabratus, read-out: Minimal inhibitory concentration
Method: as §1

candida tropicalis = conditions: Candida tropicalis, read-out: Minimal inhibitory concentration
Method: as §1

SMILES | MIC (candida krusei; JLC 30366 candida krusei) [µg/mL] | MIC (candida krusei; JLC 30383 candida krusei) [µg/mL] | MIC (aspergillus flavous) [µg/mL] | Minimal inhibitory concentration (aspergillus flavous) [µg/mL] | MIC (aspergillus fumigatus) [µg/mL] | Minimal inhibitory concentration (aspergillus fumigatus) [µg/mL] | MIC (candida albicans; JLC 33659 candida albicans) [µg/mL] | MIC (candida albicans; JLC 33660 candida albicans) [µg/mL] | MIC (candida glabrata; JLC 30367 candida glabrata) [µg/mL] | MIC (candida glabrata; JLC 31512 candida glabrata) [µg/mL] | MIC (candida tropicalis; JLC 31379 candida tropicalis) [µg/mL] | MIC (candida tropicalis; JLC 31384 candida tropicalis) [µg/mL]
OC(Cn1cncn1)(Cn1cncn1)c1ccc(F)cc1F [FCZ, Fluconazol, reference compound] | 16 (≈ 52.2 µM) | 8 (≈ 26.1 µM) | > 64 | >64 | > 64 | >64 | 0.25 (≈ 0.816 µM) | 0.25 (≈ 0.816 µM) | 2 (≈ 6.53 µM) | 1 (≈ 3.27 µM) | 0.5 (≈ 1.63 µM) | 0.25 (≈ 0.816 µM)
CCC(C)n1ncn(-c2ccc(N3CCN(c4ccc(OCC5COC(Cn6cncn6)(c6ccc(Cl)cc6Cl)O5)cc4)CC3)cc2)c1=O (stereo not drawn) [ICZ, Itraconazole, reference compound] | 0.25 (≈ 0.354 µM) | 0.25 (≈ 0.354 µM) | 0.125 (≈ 0.177 µM) | 0.125 (≈ 0.177 µM) | 0.125 (≈ 0.177 µM) | 0.125 (≈ 0.177 µM) | 0.03 (≈ 0.0425 µM) | 0.0625 (≈ 0.0886 µM) | 0.0625 (≈ 0.0886 µM) | 0.03 (≈ 0.0425 µM) | 0.03 (≈ 0.0425 µM) | 0.03 (≈ 0.0425 µM)
